Reference: patent publication US9758485B2, “Compounds for controlling arthropods” (priority 2013, dated 2017)

Key:
Ctenocephalides felis [1] = test: Ctenocephalides felis - oral test; type: in vivo; conditions: application rate 100 ppm in citrated cattle blood; adult fleas; kill after 2 days
Experimental: Ctenocephalides felis—Oral Test
(§1) Solvent: dimethyl sulphoxide
For the purpose of producing an appropriate active ingredient formulation, 10 mg of active ingredient are mixed with 0.5 ml of dimethyl sulphoxide. Dilution with citrated cattle blood gives the desired concentration.
About 20 unfed adult cat fleas (Ctenocephalides felis) are placed into a chamber which is closed at the top and bottom with gauze. A metal cylinder whose bottom end is closed with parafilm is placed onto the chamber. The cylinder contains the blood/active ingredient preparation, which can be imbibed by the fleas through the parafilm membrane.
After 2 days, the kill in % is determined. 100% means that all of the fleas have been killed; 0% means that none of the fleas have been killed.

Musca domestica = Musca domestica test; type: in vivo; conditions: application rate 100 ppm; adult houseflies; kill after 2 days
Experimental: as §1
(§2) To produce an appropriate active ingredient formulation, 10 mg of active ingredient are mixed with 0.5 ml of dimethyl sulphoxide, and the concentrate is diluted with water to the desired concentration.
Vessels containing a sponge treated with sugar solution and the active ingredient formulation of the desired concentration are populated with 10 adult houseflies (Musca domestica).
After 2 days, the kill in % is determined. 100% means that all of the flies have been killed; 0% means that none of the flies have been killed.

Ctenocephalides felis [2] = test: Ctenocephalides felis - in vitro contact tests with adult cat fleas; type: in vivo; conditions: application rate 5 μg/cm^2 (=500 g/ha), after 48 h (dead or moribund)
Experimental: Ctenocephalides felis—In Vitro Contact Tests with Adult Cat Fleas
For the coating of the test tubes, 9 mg of active ingredient are first dissolved in 1 ml of acetone p.a. and then diluted to the desired concentration with acetone p.a. 250 μl of the solution are distributed homogeneously on the inner walls and base of a 25 ml test tube by turning and rocking on an orbital shaker (rocking rotation at 30 rpm for 2 h). With 900 ppm active ingredient solution and internal surface area 44.7 cm^2, given homogeneous distribution, an area-based dose of 5 μg/cm^2 is achieved.
After the solvent has evaporated off, the tubes are populated with 5-10 adult cat fleas (Ctenocephalides felis), sealed with a perforated plastic lid and incubated in a horizontal position at room temperature and ambient humidity. After 48 h, efficacy is determined. To this end, the test tubes are stood upright and the fleas are knocked to the base of the tube. Fleas which remain motionless at the base or move in an uncoordinated manner are considered to be dead or moribund.
100% efficacy means that all the fleas were dead or moribund. 0% efficacy means that no fleas were harmed.

Boophilus microplus = Boophilus microplus - injection test; type: in vivo; conditions: application rate 20 μg/animal; injected into engorged adult female ticks; laying of fertile eggs, after 7 days
Experimental: Boophilus microplus—Injection Test
as §1
To produce an appropriate active ingredient formulation, 10 mg of active ingredient are mixed with 0.5 ml of solvent and the concentrate is diluted with solvent to the desired concentration.
1 μl of the active ingredient solution is injected into the abdomen of 5 engorged adult female cattle ticks (Boophilus microplus). The animals are transferred into dishes and kept in a climate-controlled room.
Efficacy is assessed after 7 days by laying of fertile eggs. Eggs which are not visibly fertile are stored in a climate-controlled cabinet until the larvae hatch after about 42 days. An efficacy of 100% means that none of the ticks has laid any fertile eggs; 0% means that all the eggs are fertile.

Lucilia cuprina = Lucilia cuprina test; type: in vivo; conditions: application rate 100 ppm; L1 larvae in minced horsemeat; kill after 2 days
Experimental: as §1, §2
About 20 L1 larvae of the Australian sheep blowfly (Lucilia cuprina) are transferred into a test vessel containing minced horsemeat and the active ingredient preparation of the desired concentration.
After 2 days, the kill in % is determined. 100% means that all the larvae have been killed; 0% means that none of the larvae have been killed.

[3] = logP determination by HPLC on a reversed-phase column (C18), EEC Directive 79/831 Annex V.A8; type: physicochemical; conditions: for logP^a): HPLC-MS method a), Table I-T3; for log P: HPLC-MS, reversed-phase column (C18); for logP: HPLC, reversed-phase C18, acetonitrile/water with formic acid, 55° C.

SMILES	efficacy (Ctenocephalides felis [1]) [%]	efficacy (Musca domestica) [%]	efficacy (Ctenocephalides felis [2]) [%]	efficacy (Boophilus microplus) [%]	efficacy (Lucilia cuprina) [%]	logP^a) [3]	log P [3]	logP [3]
Cc1cc(C(F)(C(F)(F)F)C(F)(F)F)cc(C)c1-n1cc(-c2cncc(C(=O)NC3CC3)c2)cn1 [I-T3-7]	100	80	100	100	100	3.4		
Cc1cc(C(F)(C(F)(F)F)C(F)(F)F)cc(C)c1-n1cc(-c2cccc(C(=O)NC3CC3)c2F)cn1 [I-T3-9]	100		100	100	100	4.3		
Cc1cc(C(F)(C(F)(F)F)C(F)(F)F)cc(C)c1-n1cc(-c2cc(C(=O)NC3(C#N)CC3)c(Cl)cc2F)cn1 [I-T3-17]	95		100	100	100	4.4		
Cc1cc(C(F)(C(F)(F)F)C(F)(F)F)cc(C)c1-n1cc(-c2cccc(C(=O)NC3CC3)c2)cn1 [I-T3-29]	100	100	100	100	100	3.3		
Cc1cc(C(F)(C(F)(F)F)C(F)(F)F)cc(C)c1-n1cc(-c2cccc(C(=O)NC3(C#N)CC3)c2)cn1 [I-T3-30]	100	90	100	100	100	3.2		
O=C(NC1CC1)c1cc(-c2cnn(-c3ccc(C(F)(C(F)(F)F)C(F)(F)F)cc3Cl)c2)ccc1Cl [I-T3-31]	100	100	100	100	100	4.3		
Cc1cc(C(F)(C(F)(F)F)C(F)(F)F)cc(C(F)(F)F)c1-n1cc(-c2ccc(Cl)c(C(=O)NCC(F)(F)F)c2)cn1 [I-T3-84]	100	100	100	100	100	4.7		
Cc1cc(C(F)(C(F)(F)F)C(F)(F)F)cc(C(F)(F)F)c1-n1cc(-c2ccc(Cl)c(C(=O)NC3CSC3)c2)cn1 [I-T3-85]	100	100	100	100	100	4.7		
N#CC1(NC(=O)c2cc(-c3cnn(-c4c(Cl)cc(OC(F)(F)F)cc4Cl)c3)ccc2Cl)CC1 [I-T3-87]	100	100	100	100	100	3.6		
N#CC1(NC(=O)c2cc(-c3cnn(-c4ccc(OC(F)(F)F)cc4Cl)c3)ccc2Cl)CC1 [I-T3-89]	100	100		100	100	3.5		
Cc1ncc(-c2cnn(-c3c(Cl)cc(C(F)(F)F)cc3Cl)c2)cc1C(=O)NC1CC1 [I-T3-127]	100		100	100	90		2.5	
Cc1ncc(-c2cnn(-c3c(Cl)cc(C(F)(F)F)cc3Cl)c2)cc1C(=O)N(C)C1CC1 [I-T3-128]	100		100	100			2.8	
Cc1ncc(-c2cnn(-c3c(Cl)cc(C(F)(F)F)cc3Cl)c2)cc1C(=O)NC1(C#N)CC1 [I-T3-129]	100	80	100	100			2.6	
Cc1ncc(-c2cnn(-c3c(Cl)cc(C(F)(F)F)cc3Cl)c2)cc1C(=O)N(C)C1(C#N)CC1 [I-T3-132]	100		100	100			2.9	
CNc1ncc(-c2cnn(-c3c(Cl)cc(C(F)(C(F)(F)F)C(F)(F)F)cc3Cl)c2)cc1C(=O)NC1CC1 [I-T3-136]	100	100	100	100	100		3.5	
O=C(NC1CC1)c1cc(-c2cnn(-c3c(Cl)cc(C(F)(C(F)(F)F)C(F)(F)F)cc3Cl)c2)cnc1NC1CC1 [I-T3-137]	100	100	100	100	80		3.4	
COCCNc1ncc(-c2cnn(-c3c(Cl)cc(C(F)(C(F)(F)F)C(F)(F)F)cc3Cl)c2)cc1C(=O)NC1CC1 [I-T3-138]			100				4.1	
Cc1cc(C(F)(C(F)(F)F)C(F)(F)F)cc(C)c1-n1cc(-c2cnc(C3CC3)c(C(=O)NC3(C#N)CC3)c2)cn1 [I-T3-139]	100	90		100	100		4.1	
COc1ncc(-c2cnn(-c3c(C)cc(C(F)(C(F)(F)F)C(F)(F)F)cc3C)c2)cc1C(=O)N(C)C1CC1 [I-T3-144]	90	100		100	100		4.4	
CCN(C(=O)c1cc(-c2cnn(-c3c(Cl)cc(C(F)(F)F)cc3Cl)c2)cnc1Cl)C1CC1 [I-T3-145]	100	90	100	100	100		3.8	
CCNC(=O)c1cc(-c2cnn(-c3c(Cl)cc(C(F)(F)F)cc3Cl)c2)cnc1C [I-T3-147]			100				4.0	
N#CC1(NC(=O)c2cc(-c3cnn(-c4ncc(C(F)(F)F)cc4C(F)(F)F)c3)ccc2Cl)CC1 [I-T3-149]	100	100		100	100		3.5	
O=C(NC1CC1)c1cc(-c2cnn(-c3ncc(C(F)(F)F)cc3C(F)(F)F)c2)ccc1Cl [I-T3-150]	100	100		100	100		3.6	
N#CC1(NC(=O)c2cc(-c3cnn(-c4ncc(C(F)(C(F)(F)F)C(F)(F)F)cc4Cl)c3)ccc2Cl)CC1 [I-T3-151]	100	100		100	100		4.0	
N#CC1(CNC(=O)c2cc(-c3cnn(-c4c(Cl)cc(C(F)(C(F)(F)F)C(F)(F)F)cc4C(F)(F)F)c3)ccc2Cl)CC1 [I-T3-199]			100					
Cc1cc(C(F)(C(F)(F)F)C(F)(F)F)cc(C)c1-c1cc(-c2ccc(Cl)c(C(=O)NCC(F)(F)F)c2)on1 [I-T22-3]	100	100	100	100	100			5
N#CC1(NC(=O)c2cc(-c3cc(-c4c(Cl)cc(C(F)(C(F)(F)F)C(F)(F)F)cc4Cl)on3)ccc2Cl)CC1 [I-T23-2]	100	100	100	100	100			4.8
Cc1cc(C(F)(C(F)(F)F)C(F)(F)F)cc(C)c1-n1ccc(-c2ccc(Cl)c(C(=O)NC3CC3)c2)c1 [I-T46-2]	100		100	100	100			5.0
